The values that follow come from BindingDB's records for doi:10.1016/j.bioorg.2015.06.004 (University of Karachi, 2015).

In the experiment the target is Urease [D459Y,K653P] (Canavalia ensiformis, UniProt P07374, D459Y/K653P). Description: Urease Inhibition Assay. Particulars: pH 8.2. As to the method:
The mixture of this enzyme inhibition assay was composed of 10 µL of enzyme (5 U/mL) and 10 µL of each test compound in the series (3a-3s) in 40 µL buffer (100 mM urea, 0.01 M K2HPO4, 1 mM EDTA and 0.01 M […], pH 8.2). The resulting mixture in for each test compound was incubated for 30 min at 37 °C in 96-well plates. Subsequently, the phenol reagents (40 µL) (1%, w/v phenol and 0.005%, w/v sodium nitroprusside) and alkali reagent (40 µL) (0.5%, w/v NaOH and 0.1% active chloride NaOCl) were dropped down into each well. The absorbance of the colored resultant mixtures was measured after 30 min at 625 nm.

Sequence of Urease [D459Y,K653P] (P07374 whole entry D459Y/K653P): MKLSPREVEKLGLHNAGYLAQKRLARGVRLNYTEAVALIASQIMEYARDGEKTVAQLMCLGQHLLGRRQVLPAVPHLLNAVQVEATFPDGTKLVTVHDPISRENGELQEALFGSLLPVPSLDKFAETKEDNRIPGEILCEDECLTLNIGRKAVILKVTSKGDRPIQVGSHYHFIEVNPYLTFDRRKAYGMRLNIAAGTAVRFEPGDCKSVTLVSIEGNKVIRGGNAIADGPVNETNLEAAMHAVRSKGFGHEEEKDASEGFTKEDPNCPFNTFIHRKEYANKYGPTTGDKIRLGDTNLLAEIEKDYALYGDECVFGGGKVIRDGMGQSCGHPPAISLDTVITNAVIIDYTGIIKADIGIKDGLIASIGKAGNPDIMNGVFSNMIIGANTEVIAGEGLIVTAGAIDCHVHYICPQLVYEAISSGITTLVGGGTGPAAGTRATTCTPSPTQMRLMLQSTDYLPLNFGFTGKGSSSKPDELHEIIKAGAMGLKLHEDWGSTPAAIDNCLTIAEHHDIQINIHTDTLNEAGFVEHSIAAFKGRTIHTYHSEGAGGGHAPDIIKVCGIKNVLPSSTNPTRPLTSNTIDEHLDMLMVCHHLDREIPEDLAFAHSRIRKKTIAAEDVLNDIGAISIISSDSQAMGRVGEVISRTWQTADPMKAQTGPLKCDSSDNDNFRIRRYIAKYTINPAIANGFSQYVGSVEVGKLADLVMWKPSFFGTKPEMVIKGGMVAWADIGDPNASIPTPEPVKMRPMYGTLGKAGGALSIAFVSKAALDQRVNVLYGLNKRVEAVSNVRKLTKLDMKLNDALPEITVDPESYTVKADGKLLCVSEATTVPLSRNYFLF

`CC(=NNC(=S)Nc1cccc(Br)c1)c1cc2ccccc2o1` [2-(1-(Benzofuran-2-yl)ethylidene)-N-(3-bromophenyl)hydrazinecarbothioamide (3i)]: inhibition was half-maximal at 10900 nM (IC50).

With `CC(=NNC(=S)Nc1ccc(C)cc1)c1cc2ccccc2o1` [SMR000377934], the IC50 (commonly the concentration that inhibits the measured activity by half) is 3470 nM. The same measure for `CC(=NNC(=S)Nc1ccc(Cl)cc1Cl)c1cc2ccccc2o1` [2-(1-(Benzofuran-2-yl)ethylidene)-N-(2,4-dichlorophenyl)-hydrazinecarbothioamide (3c)]: 592 nM; for `CC(=NNC(=S)Nc1cc(Cl)ccc1Cl)c1cc2ccccc2o1` [2-(1-(Benzofuran-2-yl)ethylidene)-N-(2,5-dichlorophenyl)-hydrazinecarbothioamide (3d)]: 2010 nM; for `CC(=NNC(=S)Nc1ccccc1F)c1cc2ccccc2o1` [2-(1-(Benzofuran-2-yl)ethylidene)-N-(2-fluorophenyl)hydrazinecarbothioamide (3g)]: 321 nM. `CC(=NNC(=S)Nc1cccc(F)c1)c1cc2ccccc2o1` [2-(1-(Benzofuran-2-yl)ethylidene)-N-(3-fluorophenyl)hydrazinecarbothioamide (3f)] gave an IC50 of 1150 nM. Turning to `CC(=NNC(=S)Nc1cccc(C)c1)c1cc2ccccc2o1` [1-[1-(2-benzofuranyl)ethylideneamino]-3-(3-methylphenyl)thiourea], the IC50 was determined as 283 nM.

In the case of `COc1ccccc1NC(=S)NN=C(C)c1cc2ccccc2o1` [2-(1-(Benzofuran-2-yl)ethylidene)-N-(2-methoxyphenyl)hydrazinecarbothioamide (3o)], it took 24000 nM to reach half-maximal inhibition (IC50). The same measure for `CC(=NNC(=S)Nc1ccc(F)cc1)c1cc2ccccc2o1` [2-(1-(Benzofuran-2-yl)ethylidene)-N-(4-fluorophenyl)hydrazinecarbothioamide (3e)]: 177 nM; for `CC(=NNC(=S)Nc1ccccc1C)c1cc2ccccc2o1` [2-(1-(Benzofuran-2-yl)ethylidene)-N-(2-methylphenyl)hydrazinecarbothioamide (3p)]: 314 nM. Regarding `CC(=NNC(=S)Nc1ccccc1)c1cc2ccccc2o1` [2-(1-(Benzofuran-2-yl)ethylidene)-N-phenylhydrazinecarbothioamide (3a)], half-maximal inhibition (IC50) required 89 nM. Then `COc1ccc(NC(=S)NN=C(C)c2cc3ccccc3o2)cc1` [2-(1-(Benzofuran-2-yl)ethylidene)-N-(4-methoxyphenyl)hydrazinecarbothioamide (3m)], with 2610 nM; and `C=CCNC(=S)NN=C(C)c1cc2ccccc2o1` [N-Allyl-2-(1-(benzofuran-2-yl)ethylidene)hydrazinecarbothioamide (3s)], with 694 nM. In turn, `COc1cccc(NC(=S)NN=C(C)c2cc3ccccc3o2)c1` [2-(1-(Benzofuran-2-yl)ethylidene)-N-(3-methoxyphenyl)hydrazinecarbothioamide (3n)] gave an IC50 of 102 nM. Then `CC(=NNC(=S)Nc1cccc(Cl)c1)c1cc2ccccc2o1` [2-(1-(Benzofuran-2-yl)ethylidene)-N-(3-chlorophenyl)hydrazinecarbothioamide (3b)], with 1130 nM; and `CC(=NNC(=S)Nc1ccc([N+](=O)[O-])cc1)c1cc2ccccc2o1` [2-(1-(Benzofuran-2-yl)ethylidene)-N-(4-nitrophenyl)hydrazinecarbothioamide (3l)], with 181 nM; and `CC(=NNC(=S)Nc1ccc(F)cc1F)c1cc2ccccc2o1` [2-(1-(Benzofuran-2-yl)ethylidene)-N-(2,4-difluorophenyl)hydrazinecarbothioamide (3h)], with 387 nM. Consider `CC(=NNC(=S)Nc1cccc([N+](=O)[O-])c1)c1cc2ccccc2o1` [2-(1-(Benzofuran-2-yl)ethylidene)-N-(3-nitrophenyl)hydrazinecarbothioamide (3k)], for which inhibition was half-maximal at 77 nM (IC50).

The compound `CC(=NNC(=S)Nc1ccccc1Br)c1cc2ccccc2o1` [2-(1-(Benzofuran-2-yl)ethylidene)-N-(2-bromophenyl)hydrazinecarbothioamide (3j)] came in with a half-maximal inhibitory concentration (IC50) of 564 nM.
